From US20240254138A1, “TRICYCLIC PYRIMIDINES AS CYCLIN-DEPENDENT KINASE 7 (CDK7) INHIBITORS” (JANSSEN PHARMACEUTICA NV, priority 2021, published 2024)
Read-outs that look alike come from different tables or passages of the source.

What was measured:
[1] = system: RNA Polymerase II Serine 5 phosphorylation (Rpb1 CTD, downstream substrate of CDK7) in A549 cells; assay: Imaging-based cellular RNA PolII Ser5 phosphorylation assay in A549 cells; type: cell-based, human; conditions: wild-type CDK7, RNA PolII Ser5 phosphorylation, averaged over all measurements; for IC50: Homo sapiens, A549, A549 cells, read-out: CDK7_A549 Wild-type CDK7 (pIC50) (converted)
How it was run: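 A549 cells, seeded 1000/well in DMEM with 1% FBS and cultured 20 h, were treated with compound for 3 h at 37 °C. Ser5-phospho-Rpb1 CTD detected by immunofluorescence imaging after fixation and methanol permeabilization; IC50 from curve fit normalized to DMSO and 10 μM reference-compound controls.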

[2] = target: CDK7/cyclinH/MAT1 trimeric complex (Homo sapiens, UniProt P50613); assay: In vitro CDK7 assay, potency of irreversible covalent inhibitors (kinact/KI), coupled PK/LDH ADP readout at 340 nm; conditions: for kinact: read-out: CDK7 (20 nM enz.) (kinact, s^−1), 20 nM enzyme
CDK7/cyclinH/MAT1 trimeric complex, sequence (P50613 whole entry): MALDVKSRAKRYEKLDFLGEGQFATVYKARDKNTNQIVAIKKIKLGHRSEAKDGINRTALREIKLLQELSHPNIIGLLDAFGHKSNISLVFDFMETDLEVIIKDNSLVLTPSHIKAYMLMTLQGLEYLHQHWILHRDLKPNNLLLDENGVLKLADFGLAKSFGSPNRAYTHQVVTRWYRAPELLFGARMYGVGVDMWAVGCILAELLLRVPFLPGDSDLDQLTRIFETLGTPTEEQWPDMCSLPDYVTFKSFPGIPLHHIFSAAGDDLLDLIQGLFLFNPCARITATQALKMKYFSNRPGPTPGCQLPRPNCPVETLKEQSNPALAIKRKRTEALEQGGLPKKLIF
CDK7/cyclinH/MAT1 trimeric complex, sequence (P51946 whole entry partner): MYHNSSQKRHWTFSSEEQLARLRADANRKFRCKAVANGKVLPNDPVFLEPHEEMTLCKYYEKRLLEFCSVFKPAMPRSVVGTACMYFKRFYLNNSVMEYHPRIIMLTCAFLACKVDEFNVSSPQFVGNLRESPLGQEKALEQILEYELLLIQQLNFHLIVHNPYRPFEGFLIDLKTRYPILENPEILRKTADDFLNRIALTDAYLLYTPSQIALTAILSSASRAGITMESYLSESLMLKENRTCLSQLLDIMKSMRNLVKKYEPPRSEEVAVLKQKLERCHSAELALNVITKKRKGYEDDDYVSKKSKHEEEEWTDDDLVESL
CDK7/cyclinH/MAT1 trimeric complex, sequence (P51948 whole entry partner): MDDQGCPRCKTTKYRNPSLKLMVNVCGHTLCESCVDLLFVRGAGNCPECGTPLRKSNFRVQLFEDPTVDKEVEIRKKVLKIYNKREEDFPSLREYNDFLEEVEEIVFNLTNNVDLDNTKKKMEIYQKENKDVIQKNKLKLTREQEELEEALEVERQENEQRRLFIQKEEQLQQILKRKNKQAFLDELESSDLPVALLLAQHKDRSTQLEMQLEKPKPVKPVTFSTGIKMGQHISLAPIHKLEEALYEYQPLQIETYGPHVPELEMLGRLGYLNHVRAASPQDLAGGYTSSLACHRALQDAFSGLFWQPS

[3] = system: RNA Polymerase II Serine 5 phosphorylation in A549 cells overexpressing CDK7-mutant (C312S); assay: Imaging-based cellular RNA PolII Ser5 phosphorylation assay in A549 cells overexpressing CDK7-mutant (C312S); type: cell-based, human; conditions: RNA PolII Ser5 phosphorylation, averaged over all measurements; for IC50: Homo sapiens, A549, A549 cells overexpressing CDK7-mutant (C312S), read-out: CDK7_A549 mutant hCDK7(pIC50) (converted)
How it was run: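 A549 cells overexpressing CDK7 C312S (with endogenous wild-type CDK7) were treated with compound for 3 h at 37 °C in 1% FBS medium. Phospho-Rpb1 CTD Ser5 was immunostained after fixation and imaged. IC50 came from curve fit of % control, normalised to DMSO and 10 μM reference-compound controls.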

[4] = read-out: CDK7 (20 nM enz.) (kobs/[I], M^−1*s^−1), 20 nM enzyme
[5] = CDK7 (20 nM enz.) (KI, μM), 20 nM enzyme
[6] = read-out: CDK7 (20 nM enz.) (kinact/KI, M^−1*s^−1), 20 nM enzyme

| IC50 [1] [nM] | kinact/KI [2, 4] [M⁻¹ s⁻¹] | IC50 [3] [nM] | Ki [2, 5] [µM] | kinact [2] [s⁻¹] | kinact/KI [2, 6] [M⁻¹ s⁻¹] | CDK7_A549 Wild-type CDK7 (pIC50) ([1]; A549 cells) | CDK7 (20 nM enz.) (kinact, s^−1) ([2]; 20 nM enzyme) [s⁻¹] | CDK7 (20 nM enz.) (kinact/KI, M^−1*s^−1) ([2]; 20 nM enzyme) [M⁻¹ s⁻¹] | Ki ([2]; read-out: CDK7 (20 nM enz.) (KI), 20 nM enzyme) [µM] | CDK7_A549 mutant hCDK7(pIC50) ([3]; A549 cells overexpressing CDK7-mutant (C312S)) | Structure (SMILES) |
| --- | --- | --- | --- | --- | --- | --- | --- | --- | --- | --- | --- |
| 79.4 | 1650 | > 10000 |  |  |  |  |  |  |  |  | C=CC(=O)N1CC(N2CC[C@H](c3ccc4c(c3)Nc3nccc(N5CCOCC5)c3CO4)C[C@H]2C)C1 (single isomer, unassigned) [Compound 76] |
| 60.3 | 923 | > 10000 |  |  |  |  |  |  |  |  | C=CC(=O)N1CC(N2CCC(c3ccc4c(c3)Nc3nccc(N5CCOCC5)c3[C@@H](C)O4)CC2)C1 (single isomer, unassigned) [Compound 89] |
| 126 |  | > 10000 | 0.0777 | 4.72e-05 | 622 |  |  |  |  |  | C=CC(=O)N1CC(N2CCC(c3ccc4c(c3)Nc3nccc(N5CCOCC5)c3[C@H](C)O4)CC2)C1 (single isomer, unassigned) [Compound 92] |
| 447 |  | > 10000 | 0.0862 | 5.07e-05 | 589 |  |  |  |  |  | C=CC(=O)N1CC(N2CCC[C@H](c3ccc4c(c3)Nc3nccc(N5CCOCC5)c3CO4)C2)C1 (single isomer, unassigned) [Compound 93] |
| 66.1 | 1510 | > 10000 | 0.0627 | 0.00011 | 1760 |  |  |  |  |  | C=CC(=O)N1CC(N2CCC(c3ccc4c(c3)Nc3nccc(C5CCOCC5)c3[C@@H](C)O4)CC2)C1 (single isomer, unassigned) [Compound 97] |
| 1260 |  | > 10000 | 0.39 | 5.61e-05 | 144 |  |  |  |  |  | C=CC(=O)N1CC(N2CCC(c3ccc4c(c3)Nc3nccc(C5CCOCC5)c3[C@H](C)O4)CC2)C1 (single isomer, unassigned) [Compound 98] |
| 1170 |  | > 10000 | 0.431 | 4.85e-05 | 112 |  |  |  |  |  | C=CC(=O)N1CC(N2CCC(c3ccc4c(c3)Nc3nccc(C5CCOCC5)c3[C@H](C)O4)CC2)C1 (single isomer, unassigned) [Compound 104] |
|  |  |  |  |  |  | 5.55 | 1.425e-05 | 5.9 | 2.42 | <5 | C=CC(=O)N1CC(N2CC[C@H](c3ccc4c(c3)Nc3nccc(N5CCOCC5)c3CO4)[C@@H](F)C2)C1 (single isomer, unassigned) [Compound 109] |
| 27.5 | 1420 | 8320 |  |  |  |  |  |  |  |  | C=CC(=O)N1CC(N2CCC(c3ccc4c(c3)Nc3nccc(-c5cnn(C)c5)c3[C@@H](C)O4)CC2)C1 (single isomer, unassigned) [Compound 127] |
| 38 | 1530 | ~8710 |  |  |  |  |  |  |  |  | C=CC(=O)N1CC[C@@H](N2CCC(c3cc(C)c4c(c3)Nc3nccc(-c5cnn(C)c5)c3CO4)CC2)C1 (single isomer, unassigned) [Compound 134] |
| 28.8 | 1330 | ~3720 |  |  |  |  |  |  |  |  | C=CC(=O)N1CC[C@H](N2CCC(c3cc(C)c4c(c3)Nc3nccc(-c5cnn(C)c5)c3CO4)CC2)C1 (single isomer, unassigned) [Compound 138] |
| 977 |  | > 10000 | 0.872 | 7.9e-05 | 90.6 |  |  |  |  |  | C=CC(=O)N1CC(N2CCC[C@@H](c3ccc4c(c3)Nc3nccc(N5CCOCC5)c3CO4)C2)C1 (single isomer, unassigned) [Compound 145] |
| 50.1 |  | > 10000 | 0.0542 | 6.66e-05 | 1230 |  |  |  |  |  | C=CC(=O)N1CC[C@@H](N2CC(c3cc(C)c4c(c3)Nc3nccc(N5CCOCC5)c3CO4)C2)C1 (single isomer, unassigned) [Compound 149] |
| 46.8 |  | 6030 | 0.0526 | 8.76e-05 | 1660 |  |  |  |  |  | C=CC(=O)N1CC[C@H](N2CC(c3cc(C)c4c(c3)Nc3nccc(N5CCOCC5)c3CO4)C2)C1 (single isomer, unassigned) [Compound 150] |
| 18.6 |  | 5750 | 0.0288 | 3.67e-05 | 1280 |  |  |  |  |  | C=CC(=O)N1CCC(N2CC(c3cc(F)c4c(c3)Nc3nccc(C5CCOCC5)c3[C@@H](C)O4)C2)CC1 (single isomer, unassigned) [Compound 153] |
| 501 |  | > 10000 | 2.09 | 4.59e-05 | 22 |  |  |  |  |  | C=CC(=O)N1CCC(N2CC(c3cc(F)c4c(c3)Nc3nccc(C5CCOCC5)c3[C@H](C)O4)C2)CC1 (single isomer, unassigned) [Compound 155] |
| 56.2 |  | > 10000 | 0.0731 | 5.78e-05 | 791 |  |  |  |  |  | C=CC(=O)N1CC[C@H](N2CCC(c3cc4c(c(C)n3)OCc3c(N5CCOCC5)ccnc3N4)CC2)C1 (single isomer, unassigned) [Compound 183] |
| 32.4 |  | > 10000 | 0.0446 | 6.03e-05 | 1350 |  |  |  |  |  | C=CC(=O)N1CC[C@@H](N2CCC(c3cc4c(c(C)n3)OCc3c(N5CCOCC5)ccnc3N4)CC2)C1 (single isomer, unassigned) [Compound 184] |
| 4370 |  | > 10000 | 3.09 | 4.72e-05 | 15.3 |  |  |  |  |  | C#CCCN(C)C/C=C/C(=O)N1CC(N2CCC(c3ccc4c(c3)Nc3nccc(N5CCOCC5)c3[C@@H](C)O4)CC2)C1 (single isomer, unassigned) [Compound 191] |
| 79.4 |  | > 10000 | 0.0907 | 4.14e-05 | 456 |  |  |  |  |  | C=CC(=O)N1CC[C@H](N2CC(c3cc(C)c4c(c3)Nc3nccc(-c5cnn(C)c5)c3CO4)C2)C1 (single isomer, unassigned) [Compound 192] |
| 69.2 |  | > 10000 | 0.063 | 3.66e-05 | 581 |  |  |  |  |  | C=CC(=O)N1CC[C@H](N2CC(c3cc(C)c4c(c3)Nc3nccc(C5CCOCC5)c3CO4)C2)C1 (single isomer, unassigned) [Compound 193] |
| 58.9 |  | > 10000 | 0.0892 | 4.72e-05 | 530 |  |  |  |  |  | C=CC(=O)N1CC[C@@H](N2CC(c3cc(C)c4c(c3)Nc3nccc(-c5cnn(C)c5)c3CO4)C2)C1 (single isomer, unassigned) [Compound 194] |
| 105 |  | > 3980 | 0.0924 | 4.58e-05 | 496 |  |  |  |  |  | C=CC(=O)N1CC[C@@H](N2CC(c3cc(C)c4c(c3)Nc3nccc(C5CCOCC5)c3CO4)C2)C1 (single isomer, unassigned) [Compound 196] |
| 288 |  | > 10000 | 0.449 | 3.63e-05 | 80.8 |  |  |  |  |  | C=CC(=O)N1CC[C@H](N2CC(c3cc4c(c(C)n3)OCc3c(-c5cnn(C)c5)ccnc3N4)C2)C1 (single isomer, unassigned) [Compound 199] |
| 339 |  | > 10000 | 0.352 | 3.71e-05 | 105 |  |  |  |  |  | C=CC(=O)N1CC[C@@H](N2CC(c3cc4c(c(C)n3)OCc3c(-c5cnn(C)c5)ccnc3N4)C2)C1 (single isomer, unassigned) [Compound 204] |
